For assay [1], the target named is Cdc7/ASK (Homo sapiens, UniProt O00311). Put plainly: Cdc7 biochemical assay Method 1: 384 well ELISA, MCM2 whole protein substrate, Phospho MCM2 (S53) antibody. Details: purchased. As to conditions: ATP 2 μM, 90 minutes, read-out: Biochemical method 1 (pIC50) (converted). As for the experimental part: This protocol describes a method for assaying Cdc7/ASK for activity. The assay is a 384 well ELISA assay, utilising a whole protein substrate (MCM2) and an antibody against Phospho MCM2 (S53). This site is thought to be specific to Cdc7/ASK phosphorylation and the assay has been validated using knockout mutants.
Cdc7/ASK, sequence (O00311 whole entry): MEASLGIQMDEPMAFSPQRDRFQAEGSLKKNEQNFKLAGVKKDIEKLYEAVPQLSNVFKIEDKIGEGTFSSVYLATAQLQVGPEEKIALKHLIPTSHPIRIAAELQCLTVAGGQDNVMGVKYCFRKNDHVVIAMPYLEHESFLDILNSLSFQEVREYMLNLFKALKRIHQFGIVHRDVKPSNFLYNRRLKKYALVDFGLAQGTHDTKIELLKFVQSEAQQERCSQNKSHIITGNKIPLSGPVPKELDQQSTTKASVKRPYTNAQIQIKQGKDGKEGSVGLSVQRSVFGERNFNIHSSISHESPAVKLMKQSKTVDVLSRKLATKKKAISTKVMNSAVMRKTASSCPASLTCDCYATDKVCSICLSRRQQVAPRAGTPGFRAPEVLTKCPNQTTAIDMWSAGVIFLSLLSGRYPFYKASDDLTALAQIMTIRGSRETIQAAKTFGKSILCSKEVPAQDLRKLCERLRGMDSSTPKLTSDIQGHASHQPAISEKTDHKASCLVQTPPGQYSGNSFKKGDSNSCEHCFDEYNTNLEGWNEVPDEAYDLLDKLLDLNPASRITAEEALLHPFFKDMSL
Cdc7/ASK, sequence (Q9UBU7 whole entry partner): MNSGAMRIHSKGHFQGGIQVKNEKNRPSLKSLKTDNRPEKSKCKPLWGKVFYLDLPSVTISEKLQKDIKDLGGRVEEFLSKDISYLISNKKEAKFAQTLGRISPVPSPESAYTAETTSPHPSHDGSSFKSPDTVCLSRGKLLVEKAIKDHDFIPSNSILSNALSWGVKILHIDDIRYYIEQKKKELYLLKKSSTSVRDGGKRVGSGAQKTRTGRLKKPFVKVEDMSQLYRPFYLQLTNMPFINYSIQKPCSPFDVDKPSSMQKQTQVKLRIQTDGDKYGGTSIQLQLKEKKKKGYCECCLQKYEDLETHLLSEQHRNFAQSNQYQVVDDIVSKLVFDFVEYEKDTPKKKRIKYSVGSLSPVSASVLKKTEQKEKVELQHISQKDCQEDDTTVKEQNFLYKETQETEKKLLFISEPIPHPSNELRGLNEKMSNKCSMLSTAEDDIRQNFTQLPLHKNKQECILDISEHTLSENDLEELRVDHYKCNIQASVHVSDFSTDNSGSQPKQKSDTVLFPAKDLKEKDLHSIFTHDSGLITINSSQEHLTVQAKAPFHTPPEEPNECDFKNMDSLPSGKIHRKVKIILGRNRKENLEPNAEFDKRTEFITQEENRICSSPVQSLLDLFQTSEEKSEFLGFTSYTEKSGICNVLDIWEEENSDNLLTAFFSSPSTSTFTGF
• TBS: 25 mM Tris pH 7.2, 150 mM NaCl. (Dilute 10× stock by 1:10). • Wash Buffer: TBS+0.05% Tween 20. (Add 100 mL 1 M Tris pH 7.2, 120 mL 5 M NaCl and 2 mL 100% Tween 20 per 4 L). • Kinase Reaction Buffer: 50 mM Tris-HCl pH 8.5, 10 mM MgCl2, 1 mM DTT. (Dilute 10× stock by 1:10 and add 100 μL 1M DTT per 100 mL prior to assay). • Diethanolamine Buffer: 1 M diethanolamine pH 9.8, 0.5 mM MgCl2. • Stop Solution: 1 M NaOH. • MCM2 was expressed and purified in-house and used in the assay at a final assay concentration of 436 ng/well. • Cdc7/ASK is purchased from commercial suppliers and used in the assay at a final assay concentration of 37.97 ng/well or 20.63 nM. • ATP used as a final assay concentration of 2 μM. • Primary Antibody: Rabbit anti-Phospho MCM2 (S53 Antibody (BL3353)), is purchased from commercial suppliers at 0.2 mg/mL and used at a final assay concentration by diluting 1:800 in TBS. • Secondary Antibody: Anti-Rabbit/AP Antibody is supplied is purchased from commercial suppliers at 1 mg/mL and used at a final assay concentration by diluting 1:2000 in TBS. • Development Reagent: Dissolve one 20 mg PNPP tablet (Sigma, product N2765, 20 mg per tablet) per 20 mL diethanolamine Buffer (or one 5 mg PNPP tablet per 5 mL diethanolamine buffer). Cover in foil and leave shaking on a roller shaker at room temperature for up to an hour to dissolve. Methods • 1. Add 20 μL 1× working stock of Substrate (MCM2) in TBS to all wells of a clear, 384 well, Nickel-chelate microplate to give a final concentration of 250 ng/well. Incubate at room temperature for at least 1 hour. Plates can be pre-coated for 1 hour and stored at 4° C. for up to 8 days. • 2. Wash with TBS+0.05% Tween 20 (80 μL x 3). • 3. Add 2 μL 10× test compounds, including the positive control, in 40% DMSO/water to ‘test’ wells. Add 2 μL 40% DMSO/water to ‘control’ and ‘blank’ wells. The final DMSO concentration will be 4%. • 4. Add 13 μL CDCl7/ASK Kinase (1.5× stock) in Kinase Reaction Buffer to ‘test’ and ‘control’ wells to give a final concentration of […]. Add 13 μL Kinase Reaction Buffer to ‘blank’ wells. • 5. Add 5 μL ATP (4× stock) in Kinase Reaction Buffer to all wells to give a final concentration of 2 μM. • 6. Incubate at room temperature for 90 minutes. • 7. Wash with TBS+0.05% Tween 20 (80 μL x 3). • 8. Add 20 μL 1× working solution of Primary Antibody in TBS to all wells. Incubate at room temperature for 30 minutes. • 9. Wash with TBS+0.05% Tween 20 (80 μL x 3). • 10. Add 20 μL 1× working solution of Secondary Antibody in TBS to all wells. Incubate at room temperature for 30 minutes. • 11. Wash with TBS+0.05% Tween 20 (80 μL x 3). • 12. Add 20 μL 1× Development Reagent to all wells. • 13. Incubate at room temperature for 2 hours. Stop the reaction by adding 20 μL Stop Solution to all wells and record Absorbance on a Pherastar plate reader.
Percentage inhibition values were calculated from absorbance values, using the no compound (DMSO) and no enzyme control values as 0% and 100% inhibition, respectively. IC50 determination was performed with ExcelFit software (IDBS) using curve fit 205. Z′ factors were determined for each plate tested and were all above 0.5.

Assay [2] addresses Cdc7 (Homo sapiens, UniProt O00311). Put plainly: Cdc7 cell pharmacodynamics assay Method 1: pS53MCM2 levels in HCT116 cells. Format: cell-based. Further details: endogenous in cells. The settings on record: 6 hours treatment, read-out: Biomarker Method 1 (pEC50) (converted). The source says:
This protocol describes a method to investigate the inhibition of Cdc7 activity of compounds by measuring pS53MCM2 levels in cells after treatment.
• HCT116 cells (wild type P53 positive) • McCoys 5A media (PAA Laboratories Ltd, E15-022) • 10% FCS (Sera Laboratories International Ltd, EU000F Batch: 108005) • 100× L-Glutamine (Invitrogen, 25030-024) • D-PBS without CaCl2 and MgCl2 (Invitrogen, ref. 14190-094) • Trypsin/EDTA (Invitrogen 25300-054) • 2% BSA in PBS • Cell Extraction Buffer (Invitrogen FNN0011) • Protease inhibitor cocktail (Sigma P-2714) • PMSF 0.3M stock in DMSO (Sigma P7626) • Antibody—rabbit pMCM2 Ser53 (Bethyl #A300-756A) • Antibody—goat MCM2 (Bethyl #A300-122A) • Antibody—goat Anti Rabbit IgG HRP (Perbio Science UK Ltd 31462) • 1×PBS • FACE Wash buffer (0.02% Triton X100 in 1×PBS) • SuperSignal ELISA Pico Chemiluminescent Substrate (Perbio Science UK Ltd 37070) Method • 72 hours prior to the start of the experiment plate 1×10^6 HCT116 cells in a 150 cm^2 flask in complete McCoys 5A media (+10% FCS+1× L-glutamine). • Plate 20,000 HCT116 cells per well in standard TC treated 96 well plate in 100 μL complete McCoys 5A media. • Allow cells to settle overnight in incubator set at 37° C. and 5% CO2. • Remove intermediate plate from fridge and place at 37° C. overnight to allow to equilibrate. • Cell treatment: cell assay plate 100 μL; daughter to cell transfer volume 3.33 μL; daughter volume 45 μL; mother plate to daughter volume 5 μL. • Once all cells are treated remove the cells to the incubator and incubate for 6 hours. • Dilute the capture antibody (total MCM2 #A300-122A) 1 in 250 in the required volume of PBS (5 mL per assay plate) and add 50 μL to each well of a Hybond plate excluding wells 12E to 12H. In these wells add 50 μL PBS. Seal the plate and incubate at room temperature fora minimum of 2 hours. • Defrost aliquot of Invitrogen Cell Extraction Buffer (FNN0011) on ice and supplement with appropriate volume of both Sigma protease inhibitor cocktail (P-2714) and PMSF (final cone 1 mM from a […] in DMSO). • After the 6 hour cell treatment time tap out the media from the assay plates and place them in the −70° C. freezer for at least 5 minutes. • Remove plates from freezer and add 20 μL of ice cold complete lysis buffer on ice. Incubate cells for 30 minutes at 4° C. • Add 80 μL per well 2% BSA. • Transfer 80 μL from the lysis plate to the same wells in the capture/ELISA plate. Cover with plate seal and incubate plates overnight at 4° C. • Wash plates with PBS, remove any residual remaining liquid and add 50 μL per well of pMCM2 Ser53 antibody (#A300-756A) diluted 1 in 100 in 2% BSA. Cover plate and incubate at room temperature for 2 hours with gentle shaking. • Wash plates with PBS, remove any residual remaining liquid and Incubate with 50 μL goat anti rabbit antibody (1 in 800 dilution in 2% BSA) for 1 hour at room temperature. • Wash plates with PBS, remove any residual remaining liquid and add 50 μL mixed SuperSignal Pico substrate. • Incubate each plate for 5 minutes at room temperature shielding the plates from direct light (with a cover plate). Read plates with the luminescent detection. Method 2

Cdc7, sequence (O00311 whole entry): as the sequence (O00311 whole entry) above
Cdc7, sequence (Q9UBU7 whole entry partner): as the sequence (Q9UBU7 whole entry partner) above

For the compound `Cc1ncsc1-c1nc(N2CCC(C)CC2)c(Cl)c(=O)[nH]1` [Compound 30, 5-chloro-4-(4-methyl-1-piperidyl)-2-(4-methylthiazol-5-yl)-1H-pyrimidin-6-one], in assay [1], the IC50 is 3.47 nM. The EC50 in assay [2] is 251 nM.

Consider `Cc1cc(C(=O)N2CCC(c3nc(-c4scnc4C)[nH]c(=O)c3Cl)CC2)no1` [Compound 25, 5-chloro-4-[1-(5-methylisoxazole-3-carbonyl)-4-piperidyl]-2-(4-methylthiazol-5-yl)-1H-pyrimidin-6-one], for which the IC50 in assay [1] was 4.79 nM. Besides, the EC50 in assay [2] was 447 nM.

In the case of `Cc1ncsc1-c1nc(N2CCNCC2)c(Cl)c(=O)[nH]1` [Compound 38, 5-chloro-2-(4-methylthiazol-5-yl)-4-piperazin-1-yl-1H-pyrimidin-6-one], the IC50 in assay [1] is 2.29 nM. In addition, the EC50 in assay [2] is 83.2 nM.

On to `Cc1ncsc1-c1nc(N2CCCC(CO)C2)c(Cl)c(=O)[nH]1` (stereo not drawn) [Compound 36, 5-chloro-4-[3-(hydroxymethyl)-1-piperidyl]-2-(4-methylthiazol-5-yl)-1H-pyrimidin-6-one], for which, in assay [1], the IC50 was 5.89 nM. Moreover, the EC50 in assay [2] was 158 nM.

In the case of `Cc1ncsc1-c1nc(C2CCNCC2)c(Cl)c(=O)[nH]1` [Compound 2, 5-chloro-2-(4-methylthiazol-5-yl)-4-(4-piperidyl)-1H-pyrimidin-6-one], in assay [1], the IC50 is 3.16 nM. Moreover, the EC50 in assay [2] was 2000 nM.

With `Cc1ncsc1-c1nc(N2CCC(O)CC2)c(Cl)c(=O)[nH]1` [Compound 29, 5-chloro-4-(4-hydroxy-1-piperidyl)-2-(4-methylthiazol-5-yl)-1H-pyrimidin-6-one], the IC50 in assay [1] is 3.16 nM. In addition, the EC50 in assay [2] was 158 nM.

For `Cc1ncsc1-c1nc(N2CCC(CO)CC2)c(Cl)c(=O)[nH]1` [Compound 33, 5-chloro-4-[4-(hydroxymethyl)-1-piperidyl]-2-(4-methylthiazol-5-yl)-1H-pyrimidin-6-one], the IC50 in assay [1] was 2.69 nM. The EC50 in assay [2] was 100 nM.

`Cc1ncsc1-c1nc(C2CCN(C(=O)c3cc(C)n(C)n3)CC2)c(Cl)c(=O)[nH]1` [Compound 23, 5-chloro-4-[1-(1,5-dimethylpyrazole-3-carbonyl)-4-piperidyl]-2-(4-methylthiazol-5-yl)-1H-pyrimidin-6-one]: in assay [1], the IC50 is 3.31 nM. The EC50 in assay [2] was 3890 nM.

As for `CCc1[nH]ncc1-c1nc(C2CCOCC2)c(Cl)c(=O)[nH]1` [Compound 15, 5-chloro-2-(5-ethyl-1H-pyrazol-4-yl)-4-tetrahydropyran-4-yl-1H-pyrimidin-6-one], the IC50 in assay [1] is 37.2 nM. For the same compound, the EC50 in assay [2] was 1740 nM.

For the compound `CCc1ncsc1-c1nc(C2CCOCC2)c(Cl)c(=O)[nH]1` [Compound 13, 5-chloro-2-(4-ethylthiazol-5-yl)-4-tetrahydropyran-4-yl-1H-pyrimidin-6-one], the IC50 in assay [1] was 33.1 nM. For the same compound, the EC50 in assay [2] was 1100 nM.

Regarding `Cc1ncsc1-c1nc(N2CCN[C@@H](C)C2)c(Cl)c(=O)[nH]1` [Compound 37, 5-chloro-4-[(3S)-3-methylpiperazin-1-yl]-2-(4-methylthiazol-5-yl)-1H-pyrimidin-6-one], the IC50 in assay [1] is 3.31 nM. For the same compound, the EC50 in assay [2] is 110 nM.

Regarding `Cc1ncsc1-c1nc(N2CCN[C@H](C)C2)c(Cl)c(=O)[nH]1` [Compound 32, 5-chloro-4-[(3R)-3-methylpiperazin-1-yl]-2-(4-methylthiazol-5-yl)-1H-pyrimidin-6-one], the IC50 in assay [1] is 8.71 nM. The EC50 in assay [2] is 263 nM.

With `Cc1ncsc1-c1nc(N2CCCC(F)(F)C2)c(Cl)c(=O)[nH]1` [Compound 35, 5-chloro-4-(3,3-difluoro-1-piperidyl)-2-(4-methylthiazol-5-yl)-1H-pyrimidin-6-one], the IC50 in assay [1] is 1.41 nM. Moreover, the EC50 in assay [2] is 24 nM.

`Cc1ncsc1-c1nc(N2CCNC(C(F)(F)F)C2)c(Cl)c(=O)[nH]1` (stereo not drawn) [Compound 31, 5-chloro-2-(4-methylthiazol-5-yl)-4-[3-(trifluoromethyl)piperazin-1-yl]-1H-pyrimidin-6-one]: the IC50 in assay [1] was 3.63 nM. The EC50 in assay [2] was 85.1 nM.

Regarding `Cc1ncsc1-c1nc(C2CCOCC2)c(F)c(=O)[nH]1` [Compound 8, 5-fluoro-2-(4-methylthiazol-5-yl)-4-tetrahydropyran-4-yl-1H-pyrimidin-6-one], the IC50 in assay [1] is 30.2 nM. Also, the EC50 in assay [2] was 331 nM.

The record behind these values is patent US11766434B2, “Pyrimidinone derivatives as CDC7 inhibitors” (Cancer Research Technology Limited, priority 2016, dated 2023).
